From the supplement of paper PMC12317010
Structures can show the parent of a compound that is named as a salt.

Experiment: collision cross section in nitrogen (drift tube, single-field); higher = larger gas-phase ion size
[1] = ion type: [M+H], ion source: APCI, ion mode: Positive
[2] = ion type: [M+H], ion source: ESI, ion mode: Positive
[3] = ion type: [M+Na], ion source: ESI, ion mode: Positive
[4] = ion type: [M-H], ion source: ESI, ion mode: Negative
[5] = ion type: [M+], ion source: APCI, ion mode: Positive
[6] = ion source: APCI, ion mode: Positive, ion type: [M]+ (permanent cation)
[7] = ion source: ESI, ion mode: Positive, ion type: [M]+ (permanent cation)
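Further: chemical standards at 10 µM analysed by drift tube IMS-QTOF MS in about 3.95 torr nitrogen, mean of duplicate injections differing ≤1%, mass error below 10 ppm.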

SMILES | collision cross section in nitrogen [2] [Å²] | collision cross section in nitrogen [3] [Å²] | collision cross section in nitrogen [4] [Å²] | collision cross section in nitrogen [1] [Å²] | also measured
CC(C)Oc1cccc(NC(=O)c2ccccc2C(F)(F)F)c1 [Flutolanil] | 172.7 | 183.5 | 176.1 | 173.1 | 
OC(Cn1cncn1)(c1ccc(F)cc1)c1ccccc1F (stereo unspecified) [Flutriafol] | 167.5 | 183.1 |  |  | 
CC(C)n1c(/C=C/[C@H](O)C[C@H](O)CC(=O)O)c(-c2ccc(F)cc2)c2ccccc21 [Fluvastatin] |  |  | 200 |  | 
O=C(Nc1ccccc1)Nc1ccnc(Cl)c1 [Forchlorfenuron] | 156.9 |  | 155.2 | 156.5 | 
CNC(=O)Oc1cccc(N=CN(C)C)c1 [Formetanate hydrochloride] | 156 |  |  |  | 
COc1ccc(-c2coc3cc(O)ccc3c2=O)cc1 [Formononetin] | 160.3 | 171.4 |  | 159.8 | collision cross section in nitrogen [5]: 156.9 Å²
C=C[C@@]1(C)CC(=O)[C@]2(O)[C@@]3(C)[C@@H](O)CCC(C)(C)[C@@H]3[C@H](O)[C@H](OC(C)=O)[C@@]2(C)O1 [Forskolin] |  | 194.3 |  |  | 
CCOP(=O)(SC(C)CC)N1CCSC1=O (stereo unspecified) [Fosthiazate] |  | 168.2 |  |  | 
c1coc(-c2nc3ccccc3[nH]2)c1 [Fuberidazole] | 136.8 |  | 138 | 136.1 | 
C[C@]12CC[C@@H]3c4ccc(O)cc4C[C@@H](CCCCCCCCCS(=O)CCCC(F)(F)C(F)(F)F)[C@H]3[C@@H]1CC[C@@H]2O (stereo partly specified) [Fulvestrant] | 242.9 | 247.6 | 246.5 | 243.5 | 
COC(=O)C(C)N(C(=O)c1ccco1)c1c(C)cccc1C (stereo unspecified) [Furalaxyl] | 161.4 | 178 |  | 162.1 | 
CCCCOC(=O)N(C)SN(C)C(=O)Oc1cccc2c1OC(C)(C)C2 [Furathiocarb] | 190.5 | 195 |  | 191.3 | 
O=C1OCCN1N=Cc1ccc([N+](=O)[O-])o1 [Furazolidone] |  |  | 150.8 |  | 
NS(=O)(=O)c1cc(C(=O)O)c(NCc2ccco2)cc1Cl [Furosemide] |  |  | 173 |  | 
CCCOC(=O)c1cc(O)c(O)c(O)c1 [Gallic acid n-propyl ester] |  |  | 146.5 |  | 
O=c1c(-c2ccc(O)cc2)coc2cc(O)cc(O)c12 [Genistein] | 160.3 | 171.3 | 161.6 | 160.3 | 
CN(C)c1ccc(C(=C2C=CC(=[N+](C)C)C=C2)c2ccc(N(C)C)cc2)cc1 [Gentian Violet] |  |  |  |  | collision cross section in nitrogen [6]: 205 Å²; collision cross section in nitrogen [7]: 205.8 Å²

SMILES | collision cross section in nitrogen [2] [Å²] | collision cross section in nitrogen [3] [Å²] | collision cross section in nitrogen [4] [Å²] | collision cross section in nitrogen [1] [Å²] | also measured
CC(=O)OC/C=C(\C)CCC=C(C)C [Geranyl acetate] |  |  | 151.5 |  | 
C=C1C[C@]23C[C@@]1(O)CC[C@H]2[C@@]12C=C[C@H](O)[C@@](C)(C(=O)O1)[C@H]2[C@@H]3C(=O)O [Gibberellic acid] |  |  | 176.4 |  | 
COc1ccc(Cl)cc1C(=O)NCCc1ccc(S(=O)(=O)NC(=O)NC2CCCCC2)cc1 [Glybenclamide] | 206.6 | 217.6 | 213.2 |  | 
CCCCCCCCCCCCCCCCCC(=O)OCC(O)CO (stereo unspecified) [Glycerol 1-monostearate] |  | 201.2 |  |  | 
CCCCCCCC/C=C\CCCCCCCC(=O)OCC(O)CO (stereo unspecified) [Glyceryl monooleate] |  | 197.2 |  |  | 
CCCCCC[C@@H](O)C/C=C\CCCCCCCC(=O)OCC(O)CO (stereo partly specified) [Glyceryl monoricinoleate] |  | 201.9 |  |  | 
C[N+](C)(C)CC1CO1 (stereo unspecified) [Glycidyl trimethylammonium chloride] |  |  |  |  | collision cross section in nitrogen [7]: 120.7 Å²
CCCCCCCCCCCC(=O)N(C)CC(=O)O [Glycine, N-methyl-N-(1-oxododecyl)-, sodium salt] |  | 175.8 | 169.5 |  | 
CC(C)(C)N(NC(=O)c1ccc(Cl)cc1)C(=O)c1ccccc1 [Halofenozide] |  | 188.3 | 178.2 |  | 
CC(Oc1ccc(Oc2ncc(C(F)(F)F)cc2Cl)cc1)C(=O)O (stereo unspecified) [Haloxyfop] | 180 |  | 190 |  | 
CCCCC(O)(Cn1cncn1)c1ccc(Cl)cc1Cl (stereo unspecified) [Hexaconazole] | 173.5 | 187 |  | 174.6 | 
CCCCCCCCCCCCCCCC[N+](C)(C)C [Hexadecyltrimethylammonium bromide] |  |  |  |  | collision cross section in nitrogen [6]: 193.1 Å²; collision cross section in nitrogen [7]: 195.1 Å²
CN(C)P(=O)(N(C)C)N(C)C [Hexamethylphosphoramide] | 135.3 | 152.8 |  | 134.4 | 
CN(C)c1nc(=O)n(C2CCCCC2)c(=O)n1C [Hexazinone] | 162.8 | 176.3 |  | 163 | 
CC1(C)CN=C(NN=C(C=Cc2ccc(C(F)(F)F)cc2)C=Cc2ccc(C(F)(F)F)cc2)NC1 [Hydramethylnon] | 240.6 | 250.1 | 234.7 | 239.4 | collision cross section in nitrogen [5]: 226.3 Å²
CC(C)(O)C(=O)Nc1ccc([N+](=O)[O-])c(C(F)(F)F)c1 [Hydroxyflutamide] |  |  | 157.4 |  | 

Second part, led by results:

collision cross section in nitrogen [2] [Å²] | collision cross section in nitrogen [3] [Å²] | collision cross section in nitrogen [4] [Å²] | SMILES | collision cross section in nitrogen [1] [Å²] | also measured
 | 201.7 | 202.5 | C[C@H](CCC(=O)NCC(=O)O)[C@H]1CC[C@H]2[C@@H]3[C@H](O)C[C@@H]4C[C@H](O)CC[C@]4(C)[C@H]3C[C@H](O)[C@]12C [Glycocholic acid] |  | 
288.9 | 296.2 | 281.7 | CC1(C)[C@@H](O[C@H]2O[C@H](C(=O)O)[C@@H](O)[C@H](O)[C@H]2O[C@@H]2O[C@H](C(=O)O)[C@@H](O)[C@H](O)[C@H]2O)CC[C@]2(C)[C@H]3C(=O)C=C4[C@@H]5C[C@@](C)(C(=O)O)CC[C@]5(C)CC[C@@]4(C)[C@]3(C)CC[C@@H]12 [Glycyrrhizin] |  | 
 | 225.2 |  | CCCCCCC(CCCCCCCCCCC(=O)OCC(COC(C)=O)OC(C)=O)OC(C)=O (stereo unspecified) [Grinstad Soft-N-Safe] |  | 
181.6 | 189.6 |  | COC1=CC(=O)C[C@@H](C)[C@]12Oc1c(Cl)c(OC)cc(OC)c1C2=O [Griseofulvin] | 182 | 
 | 147.2 |  | COc1ccccc1OCC(O)CO (stereo unspecified) [Guaifenesin] |  | 
130.3 |  |  | Nc1nc2[nH]cnc2c(=O)[nH]1 [Guanine] |  | 
171.1 | 177.5 |  | O=[N+]([O-])c1cc(N(CCO)CCO)ccc1NCCO [HC Blue 2] | 171.3 | 
142.2 |  |  | Nc1ccc(NCCO)c([N+](=O)[O-])c1 [HC Red 3] | 141.6 | 
249.1 | 251.8 | 250 | CCN(CC)C(=O)c1cc(S(=O)(=O)Cc2ccccc2)c(N2CCC(c3ccccc3)CC2)cc1N(CC)CCN(C)C [HMR1171 trifluoroacetate (1:1)] | 249.1 | 
167.9 |  |  | OC12N=C(c3ccccc3)SC1Cc1cc(Cl)ccc12 (stereo unspecified) [HMR1426] | 167.8 | 
195.1 | 200.2 | 190.2 | O=C(CCCN1CCC(O)(c2ccc(Cl)cc2)CC1)c1ccc(F)cc1 [Haloperidol] | 195.1 | 
185.1 | 186.4 |  | COC(=O)[C@@H](C)Oc1ccc(Oc2ncc(C(F)(F)F)cc2Cl)cc1 [Haloxyfop-P-methyl] |  | 
184.4 | 185.6 |  | COC(=O)C(C)Oc1ccc(Oc2ncc(C(F)(F)F)cc2Cl)cc1 (stereo unspecified) [Haloxyfop-methyl] |  | 
 |  | 137.3 | CCCCCCC(=O)O [Heptanoic acid] |  | 
 |  | 146.8 | CCCCCCCOC(C)=O [Heptyl acetate] |  | 
 | 194.1 |  | COCN(COC)c1nc(N(COC)COC)nc(N(COC)COC)n1 [Hexa(methoxymethyl)melamine] |  | 
 |  | 174.4 | Oc1c(Cl)cc(Cl)c(Cl)c1Cc1c(O)c(Cl)cc(Cl)c1Cl [Hexachlorophene] |  | 
 |  | 169.2 | CCCCCCCCCCCCCCCC(=O)O [Hexadecanoic acid] |  | 
 | 160.1 |  | C=CC(=O)N1CN(C(=O)C=C)CN(C(=O)C=C)C1 [Hexahydro-1,3,5-tris(1-oxoallyl)-1,3,5-triazine] |  | 
 | 189.8 |  | O=C(OCCCCCCOC(=O)c1ccccc1)c1ccccc1 [Hexane-1,6-diyl dibenzoate] |  | 
 | 141.5 | 138.4 | NNC(=O)CCCCC(=O)NN [Hexanedihydrazide] |  | 
 |  | 127.9 | O=C(O)CCCCC(=O)O [Hexanedioic acid] |  | 
 |  | 177.2 | CC[C@H](c1ccc(O)cc1)[C@@H](CC)c1ccc(O)cc1 [Hexestrol] |  | 
 |  | 149.7 | CCCCCCOC(=O)CCC [Hexyl butyrate] |  | 
 |  | 146.3 | CCCCCCOC(=O)CC [Hexyl propanoate] |  | 
 |  | 161.1 | CCCCCCOC(=O)c1ccc(O)cc1 [Hexylparaben] |  | 
 |  | 139 | O=C(O)CCc1ccccc1 [Hydrocinnamic acid] |  | 
